Assay results published in ChEMBL document CHEMBL1201862, “PubChem BioAssay data set” (2004).
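Method: 48-hour compound exposure of cells in 96-well plates, five concentrations, linear interpolation of endpoints. At the GI50, growth is halved.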 Active and inactive are the calls of the source. No stated cut-off is given here; in the data, active = GI50 up to about 1.1 µM and inactive = higher.

Tests used:
Assay in all cases: NCI-60 cell line screen, 48 h
[1] = tested on: BT-549
[2] = tested on: T47D
[3] = tested on: DU-145
[4] = tested on: LXFL 529
[5] = tested on: XF498
[6] = tested on: KM-20L2
[7] = tested on: DMS-273
[8] = tested on: SNB-78
[9] = tested on: RXF 631

## CCOC(=O)c1cc(Br)c(-c2cc(C)no2)[nH]1
[1]
  GI50: 31.2 µM (inactive)
[2]
  GI50: 28.1 µM (inactive)
[3]
  GI50: 20.5 µM (inactive)

## COc1ccc(-c2cc(-c3ccccc3)n(C3OC(COC(C)=O)C(OC(C)=O)C(OC(C)=O)C3OC(C)=O)c(=S)c2C#N)cc1 (centres undefined)
[1]
  GI50: 12.4 µM (inactive)
[2]
  GI50: 4.69 µM (inactive)
[3]
  GI50: 11.7 µM (inactive)

## CCN(CC)c1cccc2c1/C(=N/O)CCCC2
[4]
  GI50: > 100 µM (inactive)
[5]
  GI50: > 100 µM (inactive)
[6]
  GI50: > 100 µM (inactive)
[7]
  GI50: > 100 µM (inactive)
[8]
  GI50: > 100 µM (inactive)

## CC1CC/C(=C\c2ccc(N(C)C)cc2)C2=C1C(c1ccc(N(C)C)cc1)NC(=S)N2 (centres undefined)
[1]
  GI50: > 100 µM (inactive)
[2]
  GI50: > 100 µM (inactive)
[3]
  GI50: > 100 µM (inactive)

## O=[N+]([O-])c1ccc(N2N=C(c3ccc(NCc4nc5ccccc5[nH]4)cc3)CC2c2ccco2)cc1 (centres undefined)
[4]
  GI50: 11.1 µM (inactive)
[7]
  GI50: 21.2 µM (inactive)

## C=CCCN1CCc2c([nH]c3ccccc23)C1C(=O)O (centres undefined)
[4]
  GI50: > 100 µM (inactive)
[5]
  GI50: > 100 µM (inactive)
[6]
  GI50: > 100 µM (inactive)
[7]
  GI50: > 100 µM (inactive)
[9]
  GI50: > 100 µM (inactive)
[8]
  GI50: > 100 µM (inactive)

## O=C1CSC(c2cc3cc(Br)ccc3nc2Cl)N1c1ccc(Cl)cc1 (centres undefined)
[1]
  GI50: 26.8 µM (inactive)
[2]
  GI50: 21 µM (inactive)
[3]
  GI50: 34.4 µM (inactive)

## COc1ccc(CCn2cncn2)cc1
[4]
  GI50: > 100 µM (inactive)
[6]
  GI50: > 100 µM (inactive)
[7]
  GI50: > 100 µM (inactive)
[9]
  GI50: > 100 µM (inactive)
[8]
  GI50: > 100 µM (inactive)

## CN1C(=O)CCC1c1ccc2c(c1)oc(=O)n2C (centres undefined)
[4]
  GI50: > 100 µM (inactive)
[5]
  GI50: > 100 µM (inactive)
[6]
  GI50: > 100 µM (inactive)
[7]
  GI50: > 100 µM (inactive)
[8]
  GI50: > 100 µM (inactive)

## CC(=O)c1c2c(cc3c1CC1(Cc4cc5c(cc4C1)C(=O)CCC5)C3)CCCC2 (centres undefined)
[2]
  GI50: 5.38 µM (inactive)
[3]
  GI50: 20.9 µM (inactive)

## COC(=O)[C@H](Cc1ccccc1)NC(=O)N(CCNC(=O)OC(C)(C)C)c1ccccc1
[1]
  GI50: > 100 µM (inactive)
[2]
  GI50: 51.4 µM (inactive)
[3]
  GI50: > 100 µM (inactive)

## O=C1c2ccccc2N(O)C1(c1ccccc1)C1CCCC=C1N1CCOCC1 (centres undefined)
[4]
  GI50: 68.5 µM (inactive)
[6]
  GI50: > 100 µM (inactive)
[7]
  GI50: > 100 µM (inactive)
[8]
  GI50: > 100 µM (inactive)

## CN(C)C(=O)NCCN1CCCCCc2ccccc21
[2]
  GI50: > 100 µM (inactive)
[3]
  GI50: > 100 µM (inactive)

## O=C(NCCCl)SCCO
[4]
  GI50: > 100 µM (inactive)
[6]
  GI50: > 100 µM (inactive)
[7]
  GI50: > 100 µM (inactive)
[9]
  GI50: > 100 µM (inactive)
[8]
  GI50: > 100 µM (inactive)

## O=C(/C=C/c1ccc(OCc2ccccc2)cc1)NCc1ccc(C(=O)NCc2ccccc2)cc1
[1]
  GI50: > 100 µM (inactive)
[2]
  GI50: > 100 µM (inactive)
[3]
  GI50: > 100 µM (inactive)

## CCOC(=O)/C=C/n1c2ccccc2c(=O)c2ccccc21
[4]
  GI50: > 100 µM (inactive)
[5]
  GI50: > 100 µM (inactive)
[6]
  GI50: > 100 µM (inactive)
[7]
  GI50: > 100 µM (inactive)

## Cc1ccc(/C=C/C(=O)c2c([O-])on[n+]2-c2ccccc2)cc1
[1]
  GI50: 2.72 µM (inactive)
[2]
  GI50: 2.84 µM (inactive)
[3]
  GI50: 2.74 µM (inactive)

## CC(=O)Nc1ccc(C(=O)NN2C(=O)C(Cl)/C2=C/c2ccco2)cc1 (centres undefined)
[4]
  GI50: > 100 µM (inactive)

## N#C/C(=C\c1cc(O)cc(O)c1)C(N)=O
[4]
  GI50: > 100 µM (inactive)
[5]
  GI50: > 100 µM (inactive)
[6]
  GI50: > 100 µM (inactive)
[7]
  GI50: > 100 µM (inactive)
[9]
  GI50: > 100 µM (inactive)
[8]
  GI50: > 100 µM (inactive)

## CC1NC(=O)C(C)C(c2ccccc2)N(N=O)C1c1ccccc1 (centres undefined)
[5]
  GI50: 29.9 µM (inactive)
[6]
  GI50: > 100 µM (inactive)
[7]
  GI50: 63 µM (inactive)
[8]
  GI50: > 100 µM (inactive)

## C=C1C(=O)OC2CC1CCC1(C)OC1CCC(C)=CCCC2(C)O (centres undefined)
[5]
  GI50: 3.73 µM (inactive)
[6]
  GI50: 2.82 µM (inactive)
[7]
  GI50: 3.1 µM (inactive)
[8]
  GI50: 7.74 µM (inactive)

## CC(=O)OC1CC2Oc3ccc(C)cc3C(C)(O2)C1=O (centres undefined)
[5]
  GI50: 76 µM (inactive)
[7]
  GI50: > 100 µM (inactive)

## CC[C@H](O)[C@H](C)C=C1SCCCS1
[1]
  GI50: > 100 µM (inactive)
[3]
  GI50: > 100 µM (inactive)

## O=C(Nn1c(-c2ccccc2)nc2ccccc2c1=O)c1ccc(CS)cc1
[1]
  GI50: 22.4 µM (inactive)
[2]
  GI50: > 100 µM (inactive)
[3]
  GI50: 39.4 µM (inactive)

## Cn1cc(-c2csc(-c3cn(C)c4ccccc34)n2)c2ccccc21
[1]
  GI50: 56.4 µM (inactive)
[2]
  GI50: 2.81 µM (inactive)
[3]
  GI50: 42.9 µM (inactive)

## COc1cccc(OCC(=N/NC(=O)c2ccncc2)/N=C/c2ccncc2)c1
[1]
  GI50: > 100 µM (inactive)
[2]
  GI50: > 100 µM (inactive)
[3]
  GI50: > 100 µM (inactive)

## Nc1nc(CCC(=O)Nc2cccc(C(F)(F)F)c2)cc(-c2ccc3ccccc3c2)n1
[4]
  GI50: > 100 µM (inactive)
[5]
  GI50: > 100 µM (inactive)
[6]
  GI50: > 100 µM (inactive)
[7]
  GI50: > 100 µM (inactive)
[8]
  GI50: > 100 µM (inactive)

## O=C1C(Cl)N(c2ccccc2[N+](=O)[O-])C1c1c[nH]c2ccccc12 (centres undefined)
[4]
  GI50: > 100 µM (inactive)
[5]
  GI50: > 100 µM (inactive)
[6]
  GI50: > 100 µM (inactive)

## OC[C@H]1C[C@@H]2Cc3ccccc3N2N1
[2]
  GI50: > 100 µM (inactive)
[3]
  GI50: > 100 µM (inactive)

## O=C1C=CC(=O)c2c(Cl)ccc(O)c21
[5]
  GI50: 17.5 µM (inactive)
[6]
  GI50: 13.8 µM (inactive)
[7]
  GI50: 16.2 µM (inactive)
[8]
  GI50: 22 µM (inactive)

## Cc1cc(C(=O)NCCN(C)C)c2nc3ccccc3cc2c1
[5]
  GI50: 1.42 µM (inactive)
[6]
  GI50: 0.729 µM (active)
[7]
  GI50: 2.31 µM (inactive)
[8]
  GI50: 4.45 µM (inactive)

## Cc1cccc(/C=N/NC(=S)NCCc2ccccn2)n1
[1]
  GI50: 35.2 µM (inactive)
[2]
  GI50: 37.8 µM (inactive)
[3]
  GI50: 22.3 µM (inactive)

## COC1(OC)CCC2C1C1CCC(OC)(OC)C21 (centres undefined)
[4]
  GI50: > 50 µM (inactive)
[5]
  GI50: > 50 µM (inactive)
[6]
  GI50: > 50 µM (inactive)
[7]
  GI50: > 50 µM (inactive)
[9]
  GI50: > 50 µM (inactive)
[8]
  GI50: > 50 µM (inactive)

## CC1=CC(C)C(C)N(CC2=NCCN2)c2ccccc21 (centres undefined)
[1]
  GI50: > 100 µM (inactive)
[2]
  GI50: > 57.8 µM (inactive)
[3]
  GI50: > 69.5 µM (inactive)

## N#CCN(Cc1ccccc1)[C@H]1CCC[C@]1(O)/C=C/c1ccc2c(c1)OCO2
[2]
  GI50: 19.3 µM (inactive)
[3]
  GI50: 62.1 µM (inactive)

## CCCCC1Cc2ccccc2-c2n1c1ccccc1[n+]2C (centres undefined)
[2]
  GI50: 0.959 µM (active)
[3]
  GI50: 33.7 µM (inactive)

## C#CC(C)(C)OCCCCOc1cc(O)c2c(=O)c3ccccc3n(C)c2c1
[4]
  GI50: > 100 µM (inactive)
[5]
  GI50: > 100 µM (inactive)
[6]
  GI50: 31.3 µM (inactive)
[7]
  GI50: 77.8 µM (inactive)
[8]
  GI50: > 100 µM (inactive)

## ClCc1ccc2ccc3ccc(CCl)nc3c2n1
[5]
  GI50: 1.65 µM (inactive)
[6]
  GI50: 4.1 µM (inactive)
[7]
  GI50: 2.2 µM (inactive)
[8]
  GI50: 2.88 µM (inactive)

## CON(C)C(C#N)=C(C#N)C#N
[2]
  GI50: > 10 µM (inactive)
[3]
  GI50: > 10 µM (inactive)

## CC1=C2C3OC(=O)C(C)C3CCC2(C)C=C/C1=N\c1ccccc1 (centres undefined)
[6]
  GI50: > 100 µM (inactive)
[7]
  GI50: > 100 µM (inactive)
[8]
  GI50: > 100 µM (inactive)

## Cn1c2ccc([N+](=O)[O-])cc2c(=O)n1Cc1ccccc1F
[1]
  GI50: > 100 µM (inactive)
[2]
  GI50: 19.4 µM (inactive)
[3]
  GI50: 51.2 µM (inactive)

## COc1cc2c(ccc3c4cc(OC)c(OC)cc4c[n+](C)c23)cc1O [FAGARONINE]
[5]
  GI50: 4.54 µM (inactive)
[6]
  GI50: > 75 µM (inactive)
[7]
  GI50: 5.75 µM (inactive)
[8]
  GI50: 26.1 µM (inactive)
